Data published in patent US11548871B2, “Triazole carbamate pyridyl sulfonamides as LPA receptor antagonists and uses thereof” (Gilead Sciences, Inc., priority 2019, dated 2023).

Target: human LPAR1 (Homo sapiens, UniProt Q92633)
Assay: LPAR1 intracellular calcium mobilization assay (antagonist mode)

human LPAR1, sequence (Q92633 whole entry): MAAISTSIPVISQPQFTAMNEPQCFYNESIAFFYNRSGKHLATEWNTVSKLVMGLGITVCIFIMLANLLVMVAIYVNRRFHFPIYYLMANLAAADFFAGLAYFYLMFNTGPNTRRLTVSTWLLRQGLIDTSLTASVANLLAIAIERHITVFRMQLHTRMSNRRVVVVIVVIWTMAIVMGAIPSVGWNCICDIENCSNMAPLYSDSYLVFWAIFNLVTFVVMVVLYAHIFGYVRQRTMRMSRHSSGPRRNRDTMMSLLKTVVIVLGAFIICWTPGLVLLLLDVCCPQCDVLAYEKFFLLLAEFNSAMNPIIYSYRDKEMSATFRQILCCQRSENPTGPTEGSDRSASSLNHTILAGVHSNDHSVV

| EC50 | Compound |
| --- | --- |
| 87 nM | CC(OC(=O)Nc1c(-c2ccc(NS(C)(=O)=O)cn2)nnn1C)c1c(F)cccc1Cl (centres unmarked) [Compound 120, 1-(2-chloro-6-fluorophenyl)ethyl (1-methyl-4-(5-(methylsulfonamido)pyridin-2-yl)-1H-1,2,3-triazol-5-yl)carbamate] |
| 387 nM | Cc1nc(-c2nnn(C)c2NC(=O)O[C@@H](c2ccccc2F)C(F)(F)F)ccc1NS(C)(=O)=O [Compound 97, (S)-2,2,2-trifluoro-1-(2-fluorophenyl)ethyl(1-methyl-4-(6-methyl-5-(methylsulfonamido)pyridin-2-yl)-1H-1,2,3-triazol-5-yl)carbamate] |
| 493 nM | Cc1nc(-c2nnn(C)c2NC(=O)OC(c2cccnc2Cl)C(F)F)ccc1NS(C)(=O)=O (centres unmarked) [Compound 137, 1-(2-chloropyridin-3-yl)-2,2-difluoroethyl (1-methyl-4-(6-methyl-5-(methylsulfonamido)pyridin-2-yl)-1H-1,2,3-triazol-5-yl)carbamate] |
| 1420 nM | C=Cc1ncccc1[C@@H](C)OC(=O)Nc1c(-c2ccc(NS(C)(=O)=O)c(C)n2)nnn1C [Compound 127, (R)-1-(2-vinylpyridin-3-yl)ethyl (1-methyl-4-(6-methyl-5-(methylsulfonamido)pyridin-2-yl)-1H-1,2,3-triazol-5-yl)carbamate] |
| 5250 nM | C[C@@H](OC(=O)Nc1c(-c2ccc(NS(=O)(=O)C3CNC3)cn2)nnn1C)c1cccnc1Cl [Compound 161, (R)-1-(2-chloropyridin-3-yl)ethyl (4-(5-(azetidine-3-sulfonamido)pyridin-2-yl)-1-methyl-1H-1,2,3-triazol-5-yl)carbamate] |
| 84.7 nM | CNc1nc(-c2nnn(C)c2NC(=O)O[C@H](CF)c2ccccc2)ccc1NS(C)(=O)=O [Compound 155, (S)-2-fluoro-1-phenylethyl (1-methyl-4-(6-(methylamino)-5-(methylsulfonamido)pyridin-2-yl)-1H-1,2,3-triazol-5-yl)carbamate] |
| 162 nM | Cc1nc(-c2nnn(C)c2NC(=O)O[C@H](CF)c2ccccc2)c(F)cc1NS(C)(=O)=O [Compound 156, (S)-2-fluoro-1-phenylethyl (4-(3-fluoro-6-methyl-5-(methylsulfonamido)pyridin-2-yl)-1-methyl-1H-1,2,3-triazol-5-yl)carbamate] |
| 114 nM | Cc1nc(-c2nnn(CC#N)c2NC(=O)O[C@@H](c2ccccc2)C(F)F)ccc1NS(C)(=O)=O [Compound 100, (S)-2,2-difluoro-1-phenylethyl(1-(cyanomethyl)-4-(6-methyl-5-(methylsulfonamido)pyridin-2-yl)-1H-1,2,3-triazol-5-yl)carbamate] |
| 10000 nM | COC1CN(S(=O)(=O)Nc2ccc(-c3nnn(C)c3NC(=O)O[C@H](C)c3cccc(F)c3)nc2C)C1 [Compound 108, (R)-1-(3-fluoro-phenyl)ethyl (4-(5-((3-methoxy-azetidine)-1-sulfonamido)-6-methylpyridin-2-yl)-1-methyl-1H-1,2,3-triazol-5-yl)carbamate] |
| 330 nM | Cc1nc(-c2nnn(C)c2NC(=O)O[C@H](C)c2ccc(F)nc2C)ccc1NS(C)(=O)=O [Compound 143, (R)-1-(6-fluoro-2-methylpyridin-3-yl)ethyl (1-methyl-4-(6-methyl-5-(methylsulfonamido)pyridin-2-yl)-1H-1,2,3-triazol-5-yl)carbamate] |
| 218 nM | C[C@@H](OC(=O)Nc1c(-c2ccc(NS(C)(=O)=O)cn2)nnn1C)c1cc(F)ncc1F [Compound 117, (R)-1-(2,5-difluoropyridin-4-yl)ethyl (1-methyl-4-(5-(methylsulfonamido)pyridin-2-yl)-1H-1,2,3-triazol-5-yl)carbamate] |
| 438 nM | [2H]C([2H])([2H])N(c1ccc(-c2nnn(C)c2NC(=O)O[C@H](C)c2cccnc2Cl)nc1C)S(C)(=O)=O [Compound 164, (R)-1-(2-chloropyridin-3-yl)ethyl (1-methyl-4-(6-methyl-5-(N-(methyl-d3)methylsulfonamido)pyridin-2-yl)-1H-1,2,3-triazol-5-yl)carbamate] |
| 42.1 nM | C[C@@H](OC(=O)Nc1c(-c2ccc(NS(C)(=O)=O)cn2)nnn1C)c1cc(Cl)cnc1F [Compound 111, (R)-1-(5-chloro-2-fluoropyridin-3-yl)ethyl (1-methyl-4-(5-(methylsulfonamido)pyridin-2-yl)-1H-1,2,3-triazol-5-yl)carbamate] |

Further lines, the compound ahead of its results:

| Compound | EC50 |
| --- | --- |
| COc1nc(-c2nnn(C)c2NC(=O)O[C@@H](c2ccccc2)C(F)F)ccc1NS(C)(=O)=O [Compound 7, (S)-2,2-difluoro-1-phenylethyl (4-(6-methoxy-5-(methylsulfonamido)pyridin-2-yl)-1-methyl-1H-1,2,3-triazol-5-yl)carbamate] | 112 nM |
| Cc1nc(-c2nnn(C)c2NC(=O)O[C@@H](c2cccc(F)c2)C(F)F)ccc1NS(C)(=O)=O [Compound 58, (S)-2,2-difluoro-1-(3-fluorophenyl)ethyl (1-methyl-4-(6-methyl-5-(methylsulfonamido)pyridin-2-yl)-1H-1,2,3-triazol-5-yl)carbamate] | 43.9 nM |
| COCc1ccccc1[C@@H](C)OC(=O)Nc1c(-c2ccc(NS(C)(=O)=O)c(C)n2)nnn1C [Compound 35, (R)-1-(2-(methoxymethyl)phenyl)ethyl (1-methyl-4-(6-methyl-5-(methylsulfonamido)pyridin-2-yl)-1H-1,2,3-triazol-5-yl)carbamate] | 327 nM |
| Cn1nnc(-c2ccc(NS(C)(=O)=O)cn2)c1NC(=O)O[C@H](CF)c1cccc(F)c1 [Compound 22, (S)-2-fluoro-1-(3-fluorophenyl)ethyl (1-methyl-4-(5-(methylsulfonamido)pyridin-2-yl)-1H-1,2,3-triazol-5-yl)carbamate] | 8.7 nM |
| C[C@@H](OC(=O)Nc1c(-c2ccc(NS(C)(=O)=O)cn2)nnn1C)c1cc(F)ccc1F [Compound 17, (R)-1-(2,5-difluorophenyl)ethyl (1-methyl-4-(5-(methylsulfonamido)pyridin-2-yl)-1H-1,2,3-triazol-5-yl)carbamate] | 5 nM |
| Cc1cccc(COC(=O)Nc2c(-c3ccc(NS(C)(=O)=O)cn3)nnn2C)c1 [Compound 19, 3-methylbenzyl (1-methyl-4-(5-(methylsulfonamido)pyridin-2-yl)-1H-1,2,3-triazol-5-yl)carbamate] | 284 nM |
| Cc1nc(-c2nnn(C)c2NC(=O)OC(C)c2ccncc2Cl)ccc1NS(C)(=O)=O (centres unmarked) [Compound 75, 1-(3-chloropyridin-4-yl)ethyl (1-methyl-4-(6-methyl-5-(methylsulfonamido)pyridin-2-yl)-1H-1,2,3-triazol-5-yl)carbamate] | 155 nM |
| Cc1nc(-c2nnn(C)c2NC(=O)OC(C)c2cccnc2C(F)(F)F)ccc1NS(C)(=O)=O (centres unmarked) [Compound 85, 1-(2-(trifluoromethyl)pyridin-3-yl)ethyl (1-methyl-4-(6-methyl-5-(methylsulfonamido)pyridin-2-yl)-1H-1,2,3-triazol-5-yl)carbamate] | 2470 nM |
| CCCCC[C@H](OC(=O)Nc1c(-c2ccc(NS(C)(=O)=O)c(C)n2)nnn1C)C(F)(F)F [Compound 47, (S)-1,1,1-trifluoroheptan-2-yl (1-methyl-4-(6-methyl-5-(methylsulfonamido)pyridin-2-yl)-1H-1,2,3-triazol-5-yl)carbamate] | 132 nM |
| C[C@@H](OC(=O)Nc1c(-c2ccc(NS(C)(=O)=O)cn2)nnn1C)c1ccccc1Cl [Compound 10, (R)-1-(2-chlorophenyl)ethyl (1-methyl-4-(5-(methylsulfonamido)pyridin-2-yl)-1H-1,2,3-triazol-5-yl)carbamate] | 37.4 nM |
| Cc1nc(-c2nnn(C)c2NC(=O)O[C@H](C)c2cccnc2)ccc1NS(C)(=O)=O [Compound 67, (R)-1-(pyridin-3-yl)ethyl (1-methyl-4-(6-methyl-5-(methylsulfonamido)pyridin-2-yl)-1H-1,2,3-triazol-5-yl)carbamate] | 1630 nM |
| CCCCCCOC(=O)Nc1c(-c2ccc(NS(C)(=O)=O)c(C)n2)nnn1C [Compound 31, hexyl (1-methyl-4-(6-methyl-5-(methylsulfonamido)pyridin-2-yl)-1H-1,2,3-triazol-5-yl)carbamate] | 1220 nM |
| Cc1nc(-c2nnn(C)c2NC(=O)O[C@H](C)c2cc(F)c(F)cc2F)ccc1NS(C)(=O)=O [Compound 90, (R)-1-(2,4,5-trifluorophenyl)ethyl(1-methyl-4-(6-methyl-5-(methylsulfonamido)pyridin-2-yl)-1H-1,2,3-triazol-5-yl)carbamate] | 282 nM |
| Cc1nc(-c2nnn(C)c2NC(=O)O[C@H](C)c2cc(F)cc(F)c2)ccc1NS(C)(=O)=O [Compound 53, (R)-1-(3,5-difluorophenyl)ethyl (1-methyl-4-(6-methyl-5-(methylsulfonamido)pyridin-2-yl)-1H-1,2,3-triazol-5-yl)carbamate] | 170 nM |
| Cc1nc(-c2nnn(C)c2NC(=O)O[C@H](C)c2cc(F)ccc2F)ccc1NS(C)(=O)=O [Compound 63, (R)-1-(2,5-difluorophenyl)ethyl (1-methyl-4-(6-methyl-5-(methylsulfonamido)pyridin-2-yl)-1H-1,2,3-triazol-5-yl)carbamate] | 23.4 nM |
| Cc1nc(-c2nnn(C)c2NC(=O)OC(C)c2cc(Cl)cnc2Cl)ccc1NS(C)(=O)=O (centres unmarked) [Compound 84, 1-(2,5-dichloropyridin-3-yl)ethyl (1-methyl-4-(6-methyl-5-(methylsulfonamido)pyridin-2-yl)-1H-1,2,3-triazol-5-yl)carbamate] | 193 nM |
| Cc1nc(-c2nnn(C)c2NC(=O)O[C@H](C)c2cccc(Cl)c2)ccc1NS(C)(=O)=O [Compound 41, (R)-1-(3-chlorophenyl)ethyl (1-methyl-4-(6-methyl-5-(methylsulfonamido)pyridin-2-yl)-1H-1,2,3-triazol-5-yl)carbamate] | 65 nM |
| Cc1nc(-c2nnn(C)c2NC(=O)O[C@@H](c2ccccc2)C(F)(F)F)ccc1NS(C)(=O)=O [Compound 94, (S)-2,2,2-trifluoro-1-phenylethyl(1-methyl-4-(6-methyl-5-(methylsulfonamido)pyridin-2-yl)-1H-1,2,3-triazol-5-yl)carbamate] | 38.6 nM |
| CCCC[C@@H](C)OC(=O)Nc1c(-c2ccc(NS(C)(=O)=O)c(C)n2)nnn1C [Compound 28, (R)-hexan-2-yl (1-methyl-4-(6-methyl-5-(methylsulfonamido)pyridin-2-yl)-1H-1,2,3-triazol-5-yl)carbamate] | 171 nM |
